The source of these data is patent US20240343740A1, “MACROCYCLIC GLUCAGON-LIKE PEPTIDE 1 RECEPTOR AGONISTS” (Eli Lilly and Company, priority 2021, published 2024).

The EC50 is the concentration at which the effect is half-maximal. One may read the Emax as the size of the effect at its maximum, as opposed to the concentration needed.

Assay [1] deals with T1, human GLP-1R (Homo sapiens, UniProt P43220). In words: Human GLP-1 Receptor HEK293 cell cAMP assay, 581 fmol/mg GLP-1R expression density. In kind it is cell-based. On the set-up: expressed in transfected cells; host or cells: HEK293 clonal cell line. Particulars: HEK293 cell line with 581 fmol/mg expression density of GLP-1R; for EC50: geometric mean, read-out: EC50 nM (SEM, n), intracellular cAMP response, relative EC50; for Emax: percent of maximal response to GLP-1(7-36)NH2, arithmetic mean, read-out: Emax % (SEM, n), intracellular cAMP response. The method, boiled down:
(§1)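 HEK293 clonal lines expressing human GLP-1R, 20-point compound curves, 30 min at 37° C in DMEM with 0.1% casein, 250 μM IBMX, 0.5% DMSO. cAMP by HTRF, converted via standard curve to % of maximal human GLP-1(7-36)NH2 response; relative EC50 and Emax from four-parameter logistic fit.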
Background: Cyclic AMP is a second messenger, typically raised through Gs and lowered through Gi signalling.

Assay [2] deals with T1, human GLP-1R. In words: Human GLP-1 Receptor HEK293 cell cAMP assay, 104 fmol/mg GLP-1R expression density. It is filed as cell-based. The arrangement: expressed in transfected cells; host or cells: HEK293 clonal cell line. Particulars: HEK293 cell line with 104 fmol/mg expression density of GLP-1R; for EC50: geometric mean, read-out: EC50 nM (SEM, n), intracellular cAMP response, relative EC50; for Emax: percent of maximal response to GLP-1(7-36)NH2, arithmetic mean, read-out: Emax % (SEM, n), intracellular cAMP response. The gist of the method:
as §1

T1 sequence (P43220 24-463): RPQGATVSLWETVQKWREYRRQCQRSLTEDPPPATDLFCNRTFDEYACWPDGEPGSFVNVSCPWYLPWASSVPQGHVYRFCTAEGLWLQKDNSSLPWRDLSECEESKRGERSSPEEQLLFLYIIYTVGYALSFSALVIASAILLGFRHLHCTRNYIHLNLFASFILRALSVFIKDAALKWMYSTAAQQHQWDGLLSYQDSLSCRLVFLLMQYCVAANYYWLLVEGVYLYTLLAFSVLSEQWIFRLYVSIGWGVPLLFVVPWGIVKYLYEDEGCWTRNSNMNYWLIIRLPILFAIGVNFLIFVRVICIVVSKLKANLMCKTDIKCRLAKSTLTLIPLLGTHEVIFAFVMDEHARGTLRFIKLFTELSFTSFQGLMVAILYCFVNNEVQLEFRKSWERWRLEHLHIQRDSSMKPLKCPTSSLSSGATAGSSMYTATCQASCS

`COCCOc1cc(C(=O)O)cc2c1nc(Cc1cc(F)c3cc1CCOCc1cc(ccc1Cl)COc1cccc-3n1)n2C[C@@H]1CCO1` [Example 47, (S)-2-((5^4-Chloro-1^6-fluoro-3,7-dioxa-2(2,6)-pyridina-1,5(1,3)-dibenzenacyclononaphane-1^4-yl)methyl)-4-(2-methoxyethoxy)-1-(oxetan-2-ylmethyl)-1H-benzo[d]imidazole-6-carboxylic acid]: on human GLP-1R [1], the EC50 was found to be 25.1 nM and the maximal response (Emax) stood at 110%. Besides, at human GLP-1R [2], the EC50 was determined as 116 nM and the Emax was 108%.
As to `COCCOc1cc(C(=O)O)cc2c1nc(Cc1cc(F)c3cc1CCOCc1cc(ccc1C#N)COc1cccc-3n1)n2C[C@@H]1CCO1` [Example 48, (S)-2-((5^4-Cyano-1^6-fluoro-3,7-dioxa-2(2,6)-pyridina-1,5(1,3)-dibenzenacyclononaphane-1^4-yl)methyl)-4-(2-methoxyethoxy)-1-(oxetan-2-ylmethyl)-1H-benzo[d]imidazole-6-carboxylic acid], on human GLP-1R [1], the concentration giving a half-maximal response (EC50) amounted to 11.2 nM and the Emax was determined as 108%. Moreover, on human GLP-1R [2], the concentration giving a half-maximal response (EC50) turned out to be 31.5 nM and the Emax turned out to be 86.8%.
Turning to `COCCOc1cc(C(=O)O)cc2c1nc(Cc1ccc3cc1COCCc1cc(C#N)ccc1COc1ccc(F)c-3n1)n2C[C@@H]1CCO1` [Example 49, (S)-2-((5^4-Cyano-2^3-fluoro-3,8-dioxa-2(2,6)-pyridina-1(1,3),5(1,2)-dibenzenacyclononaphane-1^4-yl)methyl)-4-(2-methoxyethoxy)-1-(oxetan-2-ylmethyl)-1H-benzo[d]imidazole-6-carboxylic acid], at human GLP-1R [1], the EC50 was found to be 2.33 nM and the Emax is 112%. Moreover, on human GLP-1R [2], the EC50 was determined as 8.39 nM and the Emax came out at 85.5%.
Regarding `COCCOc1cc(C(=O)O)cc2c1nc(Cc1ccc3cc1COCC(F)(F)c1cc(C#N)ccc1COc1cccc-3n1)n2C[C@@H]1CCO1` [Example 50, (S)-2-((5^4-cyano-6,6-difluoro-3.8-dioxa-2(2,6)-pyridina-1(1,3),5(1,2)-dibenzenacyclonaphane-1^4-yl)methyl)-4-(2-methoxyethoxy)-1-(oxatan-2-ylmethyl)-1H-benzo[d]imidazole-6-carboxylic acid], on human GLP-1R [1], the EC50 came out at 38.1 nM and the Emax was 115%. Further, on human GLP-1R [2], the 50% effective concentration (EC50) was determined as 128 nM and the Emax was 82.8%.
The like results for `COc1cc(C(=O)O)cc2c1nc(Cc1ccc3cc1COCCc1cc(C#N)ccc1COc1ccnc-3n1)n2C[C@@H]1CCO1` [Example 51, (S)-2-((5^4-Cyano-3,8-dioxa-2(2,4)-pyrimidina-1(1,3),5(1,2)-dibenzenacyclononaphane-1^4-yl)methyl)-4-methoxy-1-(oxetan-2-ylmethyl)-1H-benzo[d]imidazole-6-carboxylic acid] were, in that order, 41 nM, 96.7%, 152 nM and 77.1%.
Consider `COCCOc1cc(C(=O)O)cc2c1nc(Cc1ccc3cc1COCCc1cc(C(F)(F)F)ncc1COc1cccc-3n1)n2C[C@@H]1CCO1` [Example 52, (S)-4-(2-Methoxyethoxy)-1-(oxetan-2-ylmethyl)-2-((5^6-(trifluoromethyl)-3,8-dioxa-2(2,6),5(3,4)-dipyridina-1(1,3)-benzenacyclononaphane-1^4-yl)methyl)-1H-benzo[d]imidazole-6-carboxylic acid], for which, on human GLP-1R [1], the half-maximal effective concentration (EC50) was found to be 58.4 nM and the maximal effect (Emax) is 108%. For the same compound, at human GLP-1R [2], the concentration for a half-maximal effect (EC50) came to 153 nM and the Emax came to 84.3%.
On to `Cc1nc(CCOc2cc(C(=O)O)cc3c2nc(Cc2ccc4cc2OCCCc2cc(C#N)ccc2COc2cccc-4n2)n3C[C@@H]2CCO2)co1` [Example 53, (S)-2-((5^4-Cyano-3,9-dioxa-2(2,6)-pyridina-1(1,3),5(1,2)-dibenzenacyclononaphane-1^4-yl)methyl)-4-(2-(2-methyloxazol-4-yl)ethoxy)-1-(oxetan-2-ylmethyl)-1H-benzo[d]imidazole-6-carboxylic acid], for which, on human GLP-1R [1], the concentration giving a half-maximal response (EC50) was determined as 77.8 nM and the Emax is 104%. For the same compound, on human GLP-1R [2], the half-maximal effective concentration (EC50) was found to be 293 nM and the maximum response (Emax) amounted to 58%.
